Assay results as given in patent US20250073255A1, “USE OF FA-TYPE LIPID COMPOUNDS IN PREPARATION OF NUCLEIC ACID DELIVERY REAGENT AND RELATED PRODUCT” (BEIJING BAISHIKANG PHARMACEUTICAL TECHNOLOGY (BSJPHARMA) …, priority 2021, published 2025).

System: C57BL/6 male mice
Assay: In vivo delivery study of lipid nucleic acid mixture (oral gavage, RT-qPCR of PGY-sRNA-26 in tissues)
Set-up: species or system mouse
Conditions: for oral delivery of single-stranded sRNA nucleic acids into mouse blood / oral delivery of single-stranded sRNA nucleic acids into mouse brain tissue / oral delivery of single-stranded sRNA nucleic acids into mouse femur / oral delivery of single-stranded sRNA nucleic acids into mouse heart tissue / oral delivery of single-stranded sRNA nucleic acids into mouse intestinal tissue / oral delivery of single-stranded sRNA nucleic acids into mouse kidney tissue / oral delivery of single-stranded sRNA nucleic acids into mouse liver tissue / oral delivery of single-stranded sRNA nucleic acids into mouse lung tissue / oral delivery of single-stranded sRNA nucleic acids into mouse pancreatic tissue / oral delivery of single-stranded sRNA nucleic acids into mouse spleen tissue / oral delivery of single-stranded sRNA nucleic acids into mouse stomach tissue: 100 μg lipid:10 nmol PGY-sRNA-26, sampled after 12 hours; for oral delivery of single-stranded sRNA nucleic acids into mouse heart tissue: vs free uptake group; for oral delivery of single-stranded sRNA nucleic acids into mouse intestinal tissue: intestine; for oral delivery of single-stranded sRNA nucleic acids into mouse pancreatic tissue: pancreas
Experimental: 10 nmol of small RNA (as shown in Table 2) was dissolved in 400 μl of DEPC-treated water in a glass tube, 10 μl of the corresponding lipid stock solution was added such that the lipid mass in the system was 100 μg. The mixture was mixed thoroughly, heated in a 90° C. water bath for 15 minutes, and then cooled naturally to obtain the lipid nucleic acid mixture of lipid and small RNA.
C57BL/6 male mice, approximately 6 weeks old, weighing […], were obtained from Beijing Vital River Laboratory Animal Technology Co., Ltd. The mice were housed in the SPF-grade animal facility at the Animal Center of the Institute of Basic Medical Sciences, Chinese Academy of Medical Sciences. The mice were fasted for 12 hours before gavage administration.
The lipid nucleic acid mixture was prepared following the method described in Example 2. The resultant lipid nucleic acid mixture was orally administered to each mouse at a dose of 100 μg lipid:10 nmol single-stranded 3-methylated small RNA PGY-sRNA-26.
• 1) Blank group (n=4): mice were administered with 500 μl saline by gavage, this group served as a blank control; • 2) Free uptake group (n=4): mice were directly administered with small RNA PGY-sRNA-26 solution (10 nmol/mouse, 500 l) by gavage, this group served as a negative control; • 3) Lipid-treated group (n=4): mice were administered with 500 μl lipid nucleic acid mixture prepared in step 2 by gavage.
After 12 hours of gavage administration, 500 μl blood from the eyeball of each mouse was sampled, added to 1.5 ml Trizol Reagent LS (purchased from Invitrogen), thoroughly mixed for lysis. 3 ml of Trizol Reagent LSwas added to tissue samples and homogenized for complete lysis, wherein the sampled tissues include heart, liver, spleen, lung, kidney, stomach, intestine, brain, blood, femur, pancreas. RNAwas extracted from 1 ml of the blood or the tissue lysate following the steps below: • Centrifuge at 4° C., 12,000 rpm for 5 min, discard the precipitate, transfer Trizol to a new centrifuge tube; • Add chloroform at 200 μL chloroform/mL Trizol, shake well, stand at room temperature for 5 min; • Centrifuge at 4° C., 12,000 rpm for 15 min; • Take the upper aqueous phase to another centrifuge tube, add isopropanol at 0.4 mL isopropanol/mL Trizol, mix well, and stand at low temperature for 10-20 min; • Centrifuge at 4° C., 12,000 rpm for 15 min, discard the supernatant, RNA precipitated at the bottom of the tube; • Add 1 mL of 75% ethanol, gently shake the centrifuge tube, suspend the precipitate; • Centrifuge at 4° C., 12,000 rpm for 15 min, discard the supernatant, add 1 mL of 75% ethanol, gently shake the centrifuge tube, suspend the precipitate; • Centrifuge at 4° C., 12,000 rpm for 15 min, discard the supernatant, air-dry at room temperature, dissolve RNA samples in 50 μL RNase-free H2O, measure OD value to quantify RNA concentration. 3.3 Reverse Transcription of sRNA to cDNA:
sRNA was reverse transcribed to cDNA using the High-Capacity cDNA Reverse Transcription Kit (Applied Biosystems, cat. no. 4368813) by stem-loop method (see, e.g., “Real-time quantification of microRNAs by stem-loop RT-PCR, Nucleic Acids Res. 2005 Nov. 27; 33(20):e179”, incorporated herein by reference). The reverse transcription system is as follows: Template RNA (200 ng/μL) 10 μL, 10×RT Buffer 2.0 μL, 25×dNTP Mix (100 mM) 0.8 μL, U6 RT stem-loop primer (10 μM) 2.0 μL, PGY-sRNA-26 RT stem-loop primer (10 μM) 2.0 μL, MultiScribe™ Reverse Transcriptase (50 U/μL) 1.0 μL, RNAse Inhibitor (40 U/μL) 1.0 μL, nuclease-free H2O 1.2 μL. After transient centrifugation, the reverse transcription system was placed in a PCR machine with the following reaction conditions: (1) 25° C., 10 min; (2) 37° C., 120 min; (3) 85° C., 5 min; (4) 4° C., stop reaction. After the reaction, add 20 μL RNAse-free ddH2O, adjust the final volume to 40 μL. […]

Row | Compound | oral delivery of single-stranded sRNA nucleic acids into mouse blood | oral delivery of single-stranded sRNA nucleic acids into mouse brain tissue | oral delivery of single-stranded sRNA nucleic acids into mouse femur | oral delivery of single-stranded sRNA nucleic acids into mouse heart tissue | oral delivery of single-stranded sRNA nucleic acids into mouse intestinal tissue | oral delivery of single-stranded sRNA nucleic acids into mouse kidney tissue | oral delivery of single-stranded sRNA nucleic acids into mouse liver tissue | oral delivery of single-stranded sRNA nucleic acids into mouse lung tissue | oral delivery of single-stranded sRNA nucleic acids into mouse pancreatic tissue | oral delivery of single-stranded sRNA nucleic acids into mouse spleen tissue | oral delivery of single-stranded sRNA nucleic acids into mouse stomach tissue | overall delivery efficacy: delivering nucleic acids into each tissue and blood tested (100 μg lipid:10 nmol PGY-sRNA-26, all tissues and blood tested)
1 | CCCCCC/C=C\CCCCCCCC(=O)OCCCCCCCCCCCCCCCCCCCCCC [Lipid 823, docosyl (Z)-hexadec-9-enoate] | can effectively orally deliver | can effectively orally deliver | can effectively orally deliver | can effectively orally deliver | can effectively orally deliver | can effectively orally deliver | can effectively orally deliver | can effectively orally deliver | can effectively orally deliver | can effectively orally deliver | can effectively orally deliver | –
2 | C=C(CC(=O)O)C(=O)O [Lipid 626, 2-methylidenebutanedioic acid] | can effectively orally deliver | can effectively orally deliver | can effectively orally deliver | can effectively orally deliver | can effectively orally deliver | can effectively orally deliver | can effectively orally deliver | can effectively orally deliver | – | – | – | –
3 | CCCCCCCCCCCC(C)O (stereo not drawn) [Lipid 505, tridecan-2-ol] | can effectively orally deliver | can effectively orally deliver | – | – | – | – | can effectively orally deliver | – | – | – | can effectively orally deliver | –
4 | CCCCC(N)=O [Lipid 610] | – | – | can effectively orally deliver | – | – | can effectively orally deliver | – | can effectively orally deliver | – | can effectively orally deliver | can effectively orally deliver | –
5 | CCCCC/C=C\C/C=C\C/C=C\C/C=C\CCCC(=O)NCCCO [Lipid 808, (5Z,8Z,11Z,14Z)-N-(3-hydroxypropyl)icosa-5,8,11,14-tetraenamide] | can effectively orally deliver | can effectively orally deliver | can effectively orally deliver | can effectively orally deliver | can effectively orally deliver | can effectively orally deliver | can effectively orally deliver | can effectively orally deliver | can effectively orally deliver | can effectively orally deliver | can effectively orally deliver | –
6 | C=C(C)CCOC(=O)CCCCCCCCCCCCCCCCCCC [Lipid 814, 3-methylbut-3-enyl icosanoate] | can effectively orally deliver | can effectively orally deliver | can effectively orally deliver | can effectively orally deliver | can effectively orally deliver | can effectively orally deliver | can effectively orally deliver | can effectively orally deliver | can effectively orally deliver | can effectively orally deliver | can effectively orally deliver | –
7 | NC(CCCC(=O)O)C(=O)O (stereo not drawn) [Lipid 530, 2-aminohexanedioic acid] | can effectively orally deliver | can effectively orally deliver | can effectively orally deliver | can effectively orally deliver | can effectively orally deliver | can effectively orally deliver | can effectively orally deliver | can effectively orally deliver | – | can effectively orally deliver | can effectively orally deliver | best delivery efficacy
8 | CCCCCCCCCCCCCCC=O [Lipid 574] | can effectively orally deliver | can effectively orally deliver | can effectively orally deliver | can effectively orally deliver | – | can effectively orally deliver | can effectively orally deliver | – | – | can effectively orally deliver | can effectively orally deliver | –
